Results published in patent EP1222265B1, “NOVEL NICOTINIC ACETYLCHOLINE RECEPTOR SUBUNIT, ITS ISOLATION AND USE” (Sanofi-Aventis, priority 1999, dated 2001).
Where two headings read alike, the source gives them in different places.

Key:
[1] = target: T1, Heteromeric α9-HNARA10 receptors (Homo sapiens, UniProt Q9GZZ6+Q9UGM1); experiment: ACh-evoked currents in Xenopus laevis oocytes injected with human α9 and HNARA10 cDNAs; format: cell-based; details: for antagonism of ACh responses: α9+HNARA10 receptors
T1 construct: expressed in transfected cells; host or cells: Xenopus laevis oocytes (nuclear injection of cDNA)

homomeric α9 receptors = target: T2, homomeric α9 receptors (Homo sapiens, UniProt Q9UGM1); format: cell-based
T2 construct: expressed in transfected cells; host or cells: Xenopus laevis oocytes (cDNA injection)

[2] = target: human nicotinic acetylcholine receptor α9 subunit (homomeric α9 receptors) (human) (UniProt Q9UGM1); experiment: cell-based or functional assay
Sequence of human nicotinic acetylcholine receptor α9 subunit (homomeric α9 receptors) (human) (Q9UGM1 23-479): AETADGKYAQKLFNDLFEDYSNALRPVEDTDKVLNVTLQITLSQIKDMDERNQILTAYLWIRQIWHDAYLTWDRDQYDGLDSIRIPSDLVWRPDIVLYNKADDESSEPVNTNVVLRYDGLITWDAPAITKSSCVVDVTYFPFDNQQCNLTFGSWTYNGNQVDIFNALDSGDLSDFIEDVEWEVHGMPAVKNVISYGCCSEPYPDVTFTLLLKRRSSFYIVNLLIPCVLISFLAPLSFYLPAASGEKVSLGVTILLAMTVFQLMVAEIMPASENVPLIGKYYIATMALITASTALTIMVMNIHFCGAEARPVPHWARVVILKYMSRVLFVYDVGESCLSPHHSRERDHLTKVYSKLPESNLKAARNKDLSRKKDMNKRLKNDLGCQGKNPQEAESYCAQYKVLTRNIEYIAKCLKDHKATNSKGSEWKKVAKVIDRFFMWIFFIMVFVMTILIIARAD

T2 sequence (Q9UGM1 23-479): as above
T1 sequence (Q9UGM1 23-479): as above
T1 sequence (Q9GZZ6 25-450): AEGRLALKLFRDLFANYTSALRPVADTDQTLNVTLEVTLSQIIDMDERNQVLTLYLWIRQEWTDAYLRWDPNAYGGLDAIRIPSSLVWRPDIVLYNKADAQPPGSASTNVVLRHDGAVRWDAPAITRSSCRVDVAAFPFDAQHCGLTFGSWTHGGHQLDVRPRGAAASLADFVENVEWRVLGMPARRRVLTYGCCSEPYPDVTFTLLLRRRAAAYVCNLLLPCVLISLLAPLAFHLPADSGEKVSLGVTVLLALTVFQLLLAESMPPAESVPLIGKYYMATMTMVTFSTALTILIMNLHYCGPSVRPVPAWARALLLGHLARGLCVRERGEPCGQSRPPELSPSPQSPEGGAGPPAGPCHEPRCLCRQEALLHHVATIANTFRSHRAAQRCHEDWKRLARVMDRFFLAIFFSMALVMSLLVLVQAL

## Clc1ccc(C2CC3CCC2N3)cn1 (centres unmarked) [epibatidine]
[1]; α9+HNARA10 expressing oocytes
  agonist response: did not elicit any response
Homomeric α9 receptors; α9 expressing oocytes
  agonist response: did not elicit any response

## HNARA10 polypeptide (human nicotinic acetylcholine receptor alpha 10 subunit)
[2]
  amplitude of acetylcholine-evoked currents in Xenopus oocytes, α9-HNARA10 mixture against α9 alone: 100 fold

## COc1cc2c3cc1Oc1cc(ccc1O)C[C@@H]1c4c(cc(OC)c(O)c4Oc4ccc(cc4)C[C@@H]3N(C)CC2)CC[N+]1(C)C [d-tubocurarine]
[1]
  antagonism of ACh responses: fully antagonized
Homomeric α9 receptors; α9 receptors
  antagonism of ACh responses: fully antagonized

## CO[C@H]1CC=C2CCN3CCC4=C(CC(=O)OC4)[C@]23C1 [dihydro-β-erythroidine]
[1]
  antagonism of ACh responses: did not have any effect

## CN1CCCC1c1cccnc1 (centres unmarked) [nicotine]
[1]
  agonist response: did not elicit any response
Homomeric α9 receptors
  agonist response: did not elicit any response

## C[N+](C)(C)CCOC(N)=O [carbachol]
[1]; oocytes expressing the mixture α9-HNARA10, from dose-response curves
  evoked current (partial agonist): about 72%

## C[N+]1(C)CCN(c2ccccc2)CC1 [DMPP]
[1]
  agonist response: did not elicit any response
Homomeric α9 receptors
  agonist response: did not elicit any response
